Assay results as given in PubChem BioAssay (NCI).
Values joined by “and” are separate entries in the source; they are usually repeats but may differ in a detail not shown here. Equal entries are not always repeated.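 Step 1: Grow cells in 96-well plates. Step 2: Expose to compound for 48 hours at 5 concentrations. Step 3: Interpolate endpoints linearly; if unreached, use highest concentration. At the GI50, growth is halved. TGI denotes the concentration required for complete inhibition of growth.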

Assays:
Experiment in all cases: NCI tumour cell line growth inhibition, 48 h
K-562 leukemia = test system: K-562 leukemia
LOX IMVI melanoma = test system: LOX IMVI melanoma
KM12 colon = test system: KM12 colon
SK-MEL-28 melanoma = test system: SK-MEL-28 melanoma
OVCAR-8 ovarian = test system: OVCAR-8 ovarian
EKVX NSCLC = test system: EKVX NSCLC
SNB-75 CNS = test system: SNB-75 CNS
786-0 renal = test system: 786-0 renal
UACC-62 melanoma = test system: UACC-62 melanoma
RPMI-8226 leukemia = test system: RPMI-8226 leukemia

Row | SMILES | GI50 (K-562 leukemia) | TGI (K-562 leukemia) [µM] | GI50 (LOX IMVI melanoma) | TGI (LOX IMVI melanoma) [µM] | GI50 (KM12 colon) | TGI (KM12 colon) [µM] | GI50 (SK-MEL-28 melanoma) [µM] | TGI (SK-MEL-28 melanoma) [µM] | GI50 (OVCAR-8 ovarian) | TGI (OVCAR-8 ovarian) [µM] | GI50 (EKVX NSCLC) | TGI (EKVX NSCLC) [µM] | GI50 (SNB-75 CNS) | TGI (SNB-75 CNS) [µM] | GI50 (786-0 renal) | TGI (786-0 renal) [µM] | GI50 (UACC-62 melanoma) [µM] | TGI (UACC-62 melanoma) [µM] | GI50 (RPMI-8226 leukemia) | TGI (RPMI-8226 leukemia) [µM]
1 | O=c1c(-c2ccccc2)coc2cc(OC/C(=N/O)c3ccccc3)ccc12 | 11.3 µM | > 100 | 18.4 µM | 37.4 | 20.2 µM | 48.3 | 28.8 | > 100 | 17.3 µM | 50.8 | 13.4 µM | 48.5 | 22.9 µM | 79.2 | 25.4 µM | 50.4 | 15.2 | 31.4 | 13.8 µM | 53
2 | Cc1ccc(Cl)cc1NC(=O)c1sc2nc3c(cc2c1N)C(=O)CCC3 | 3.48 µM | > 100 | – | – | 3.65 µM | > 100 | > 100 | > 100 | > 100 µM | > 100 | 7.26 µM | > 100 | 4.1 µM | > 100 | > 100 µM | > 100 | 4.45 | > 100 | > 100 µM | > 100
3 | COc1ccc(-c2ccc(-c3ccc(C(=N)N)o3)o2)cc1 | 0.487 µM | 2.12 | 1.46 µM | 2.96 | 0.585 µM | 6.73 | 1.67 | 3.66 | 3.19 µM | 11.4 | 2.79 µM | 14.5 | 1.47 µM | 6.81 | 2.22 µM | 5.64 | 1.29 | 3.05 | 2.68 µM | 7.85
4 | COC(=O)CC[C@H](Cc1ccccc1)NC(=O)c1csc([C@@H](C[C@H](C(C)C)N(C)C(=O)[C@@H](NC(=O)[C@H]2CCCCN2C)C(C)C)OC(C)=O)n1 | < 0.0025 µM | > 25 | < 0.0025 µM | > 25 | < 0.0025 µM | > 25 | > 25 | > 25 | 0.00318 µM | > 25 | 0.00801 µM | > 25 | < 0.0025 µM | > 25 | < 0.0025 µM | > 25 | < 0.0025 | > 25 | < 0.0025 µM | > 25
5 | Cc1cc(C)cc(NC(N)=S)c1 | – | > 100 | – | 89.5 | – | > 100 | – | > 100 | – | > 100 | – | > 100 | – | > 100 | – | > 100 | – | > 100 | – | > 100
6 | COC(=O)Nc1nc2ccc(Br)cc2[nH]1 | – | > 100 | – | > 100 | – | > 100 | – | > 100 | – | > 100 | – | > 100 | – | > 100 | – | > 100 | – | > 100 | – | > 100
7 | COC(=O)[C@@H](C)C[C@H](Cc1ccccc1)NC(=O)c1csc([C@@H](C[C@H](C(C)C)N(C)C(=O)[C@@H](NC(=O)[C@H]2CCCCN2C)C2CC2)OC(C)=O)n1 | 0.000313 µM and 0.00165 µM | > 16.5 | 0.000562 µM and 0.00165 µM | > 16.5 | 0.000317 µM and 0.00165 µM | > 16.5 | 0.000934 | – | 0.000629 µM and 0.00165 µM | > 16.5 | 0.0046 µM and 0.00165 µM | > 16.5 | 0.000383 µM and 0.00165 µM | > 16.5 | 0.000456 µM and 0.00165 µM | > 16.5 | – | > 16.5 | 0.000225 µM and 0.00165 µM | > 16.5
8 | CN(C)CC/[N+]([O-])=C(/c1ccccc1)C12CC3CC(CC(C3)C1)C2 | – | 30.8 | – | 31.2 | – | 33.3 | – | 29.9 | – | 31.7 | – | 38.1 | – | 24.7 | – | 26.8 | – | 27.8 | – | 42.7
9 | Cc1cc(Cl)ccc1NC(=O)CC1SC(=Nc2ccccc2Cl)NC1=O (stereo unspecified) | – | > 100 | – | – | – | > 100 | – | > 100 | – | > 100 | – | > 100 | – | > 100 | – | > 100 | – | > 100 | – | > 100
10 | O=C(O)CCc1nn2c(nc1=O)sc1ccc3ccccc3c12 | – | > 100 | – | > 100 | – | – | – | > 100 | – | > 100 | – | > 100 | – | > 100 | – | > 100 | – | > 100 | – | > 100
11 | COc1cc2c(cc1OC)/C(=C\c1ccccc1N)C(=O)OC2 | – | 16.1 | – | 4.18 | – | 31.3 | – | 41.5 | – | – | – | 44.2 | – | 24.9 | – | 9.96 | – | 32.2 | – | 10.3
12 | CCN1CCN(CC(=O)N2c3cccc4cccc(c34)N(C(=O)CN3CCN(CC)CC3)C2c2cn(-c3ccccc3)nc2-c2cccc([N+](=O)[O-])c2)CC1 | – | – | 1.62 µM | 3.11 | 1.72 µM | 3.28 | 1.75 | 3.2 | 2.06 µM | 5.01 | 1.79 µM | 3.79 | 1.13 µM | 2.48 | 1.66 µM | 3.17 | 1.73 | 3.2 | 1.59 µM | 3.94
